The results in this text go back to PubChem BioAssay (NCI).

Some test systems named below: K-562 leukemia; LOX IMVI melanoma; SW-620 colon; ACHN renal; M14 melanoma; OVCAR-5 ovarian; SNB-19 CNS; COLO 205 colon; MOLT-4 leukemia; SF-268 CNS.
Holding throughout (assay): inhibition of tumour cell growth, NCI panel, 48 h

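The compound was tested at five concentrations on cells cultured in 96-well plates, with a 48-hour exposure period. GI50 is the concentration that inhibits growth by half. TGI: total growth inhibition.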 Bounds are passed on as bounds.

With `O=C(Nc1cccc(Cl)c1)Nc1cc(C(F)(F)F)ccc1Cl`, the GI50 with K-562 leukemia was 3.36 µM; in the assay with LOX IMVI melanoma it was 2.75 µM; with SW-620 colon it was 3.28 µM; in the assay with ACHN renal, 2.54 µM; in the assay on M14 melanoma, 2.97 µM; with OVCAR-5 ovarian it was 3.17 µM. Moreover, the GI50 with SNB-19 CNS was 3.81 µM; in the assay on COLO 205 colon, 2.09 µM; in the assay with MOLT-4 leukemia, 3.12 µM; in the assay with SF-268 CNS, 3.55 µM. For the same compound, the TGI in the assay with K-562 leukemia was 18.2 µM; with LOX IMVI melanoma, 6.96 µM; with SW-620 colon, 10.6 µM; in the assay with ACHN renal, 7.16 µM; in the assay with M14 melanoma, 9.68 µM; in the assay on OVCAR-5 ovarian it was 12.7 µM. For the same compound, the TGI amounted to 19.6 µM with SNB-19 CNS, 3.68 µM in the assay with COLO 205 colon, 11.4 µM in the assay on MOLT-4 leukemia and 11.7 µM in the assay on SF-268 CNS.

Consider `CC(C)(C)c1cc([Si](C)(C)C)c(C#N)c([Si](C)(C)C)c1`, for which the TGI with K-562 leukemia, with LOX IMVI melanoma, in the assay with SW-620 colon, in the assay with ACHN renal, in the assay with M14 melanoma and in the assay on OVCAR-5 ovarian was greater than 100 µM in each case. Besides, the TGI in the assay on SNB-19 CNS, in the assay with COLO 205 colon, in the assay with MOLT-4 leukemia and with SF-268 CNS was greater than 100 µM throughout.

In the case of `c1ccc2c(c1)CCCc1nnc3nc4ccccc4n3c1-2`, the GI50 with K-562 leukemia was 3.87 µM; in the assay with LOX IMVI melanoma it was 2.61 µM; in the assay with SW-620 colon, 5.06 µM; with ACHN renal, 3.65 µM; in the assay with M14 melanoma, 3.13 µM; with OVCAR-5 ovarian, 9.28 µM. The GI50 with SNB-19 CNS was 7.5 µM; with COLO 205 colon it was 4.78 µM; with MOLT-4 leukemia it was 4.49 µM; in the assay on SF-268 CNS, 5.73 µM. Also, the TGI with K-562 leukemia was greater than 100 µM; with LOX IMVI melanoma, 10.9 µM; with SW-620 colon it was 24.2 µM; with ACHN renal, greater than 100 µM; with M14 melanoma, 25.2 µM; in the assay with OVCAR-5 ovarian it was greater than 100 µM. The TGI with SNB-19 CNS, in the assay on COLO 205 colon, in the assay with MOLT-4 leukemia and in the assay with SF-268 CNS was greater than 100 µM in each case.

On to `Cc1ccccc1N=C(c1ccccc1)C1C(=O)c2ccccc2C1=O`, for which the GI50 in the assay with K-562 leukemia is 25.6 µM; in the assay with LOX IMVI melanoma, 21.7 µM; in the assay with SW-620 colon, 25.3 µM; in the assay on ACHN renal, 19 µM; in the assay with M14 melanoma, 2.67 µM; in the assay with OVCAR-5 ovarian, 24.6 µM. For the same compound, the GI50 in the assay with SNB-19 CNS was 20.8 µM; in the assay on COLO 205 colon it was 13.8 µM; in the assay with MOLT-4 leukemia, 9.98 µM; with SF-268 CNS, 13.3 µM. Further, the TGI in the assay with K-562 leukemia was greater than 100 µM; with LOX IMVI melanoma, 71.6 µM; with SW-620 colon, greater than 100 µM; in the assay on ACHN renal, 62.4 µM; in the assay with M14 melanoma, 13.2 µM; in the assay on OVCAR-5 ovarian it was greater than 100 µM. Further, the TGI was greater than 100 µM in the assay on SNB-19 CNS, 38.5 µM with COLO 205 colon, 35.7 µM with MOLT-4 leukemia and 40.2 µM in the assay on SF-268 CNS.

With `C=C1[C@H](O)C[C@@H](C(C)C(O)CC=C(C)C)[C@@H](O)[C@@H]2C(C)=CC[C@@H]12` (stereo not given in full), the GI50 in the assay on K-562 leukemia is 53 µM; in the assay on LOX IMVI melanoma, greater than 100 µM; in the assay with SW-620 colon it was greater than 100 µM; in the assay with ACHN renal, greater than 100 µM; with M14 melanoma, greater than 100 µM; in the assay on OVCAR-5 ovarian, greater than 100 µM. In addition, the GI50 is greater than 100 µM in the assay on SNB-19 CNS, greater than 100 µM in the assay with COLO 205 colon, 35.1 µM in the assay with MOLT-4 leukemia and greater than 100 µM in the assay with SF-268 CNS. The TGI in the assay on K-562 leukemia, in the assay with LOX IMVI melanoma, with SW-620 colon, in the assay with ACHN renal, in the assay on M14 melanoma and with OVCAR-5 ovarian was greater than 100 µM each time. In addition, the TGI with SNB-19 CNS, with COLO 205 colon, with MOLT-4 leukemia and in the assay on SF-268 CNS was greater than 100 µM in each case.

With `C=C1C(=O)O[C@H]2[C@H]1CC/C(COC(=O)NCCc1ccc(Br)cc1)=C\CC[C@@]1(C)O[C@@H]21`, the GI50 is 0.535 µM with K-562 leukemia; 1.18 µM with LOX IMVI melanoma; 0.711 µM in the assay on SW-620 colon; 1.32 µM in the assay on ACHN renal; 1.26 µM with M14 melanoma; 1.96 µM in the assay with OVCAR-5 ovarian. Further, the GI50 with SNB-19 CNS was 1.39 µM; with COLO 205 colon, 1.82 µM; with MOLT-4 leukemia, 1.69 µM; in the assay on SF-268 CNS, 1.56 µM. The TGI was 5.61 µM with K-562 leukemia; 2.58 µM in the assay with LOX IMVI melanoma; 2.4 µM with SW-620 colon; 2.78 µM with ACHN renal; 2.73 µM in the assay with M14 melanoma; 4.47 µM in the assay on OVCAR-5 ovarian. The TGI in the assay on SNB-19 CNS was 2.97 µM; in the assay with COLO 205 colon, 3.57 µM; in the assay on MOLT-4 leukemia, 4.8 µM; with SF-268 CNS it was 3.19 µM.

In the case of `CN1c2cccc[c]2[Sn]([CH3])([CH3])[c]2ccccc21`, the GI50 is less than 0.01 µM with K-562 leukemia; 0.0107 µM in the assay with LOX IMVI melanoma; 0.019 µM with SW-620 colon; less than 0.0155 µM in the assay with ACHN renal; less than 0.0148 µM in the assay on M14 melanoma; less than 0.0115 µM with OVCAR-5 ovarian. In addition, the GI50 in the assay with SNB-19 CNS is 0.0212 µM; with COLO 205 colon, 0.015 µM; with MOLT-4 leukemia it was 0.0101 µM; with SF-268 CNS, less than 0.0178 µM. In addition, the TGI in the assay with K-562 leukemia turned out to be 2.13 µM; with LOX IMVI melanoma, 0.0304 µM; in the assay on SW-620 colon, 0.0675 µM; in the assay with ACHN renal, 0.17 µM; with M14 melanoma it was 0.0305 µM; with OVCAR-5 ovarian it was 0.264 µM. Further, the TGI with SNB-19 CNS is 0.215 µM; in the assay on COLO 205 colon, 0.0572 µM; in the assay with MOLT-4 leukemia, 0.936 µM; in the assay on SF-268 CNS it was 0.165 µM.

With `Clc1cc2ns[s+]c2cc1Cl`, the TGI in the assay on K-562 leukemia, in the assay with LOX IMVI melanoma, in the assay with SW-620 colon, with ACHN renal, in the assay with M14 melanoma and in the assay with OVCAR-5 ovarian was greater than 100 µM throughout. The TGI with SNB-19 CNS, in the assay with COLO 205 colon, with MOLT-4 leukemia and with SF-268 CNS was greater than 100 µM in each case.
